Source: patent EP0314038A1, “Pyrrolidines” (Byk Gulden Lomberg Chemische Fabrik GmbH, priority 1987, dated 1989)
Counter-ions that a name gives are not always drawn.

System: spontan hypertonen Ratte
Test: antihypertensive effect (systolic blood pressure, tail cuff) in spontaneously hypertensive rats after oral administration
Format: in vivo
Details: genetically hypertensive rats (SHR/N/Ibm/Bm), N=6; for BP (% Änderung vs. Kontrolle), Mittelwert für Meßzeitpunkte: Stunden nach Gabe (Tage) 2h (1.+4.Tag): 2h after dosing, mean of days 1+4; for BP (% Änderung vs. Kontrolle), Mittelwert für Meßzeitpunkte: Stunden nach Gabe (Tage) 6h (1.-4.Tag): 6h after dosing, mean of days 1-4
Text: Die antihypertensive Wirksamkeit der erfindungsgemäßen Verbindungen kann am Modell der spontan hypertonen Ratte nachgewiesen werden.
Zur Bestimmung der antihypertensiven Wirkung werden die unten aufgeführten Verbindungen in den angegebenen Dosen an vier aufeinander folgenden Tagen an je 6 männlichen Ratten (Stamm SHR/N/Ibm/Bm, 250-350 g) mit genetisch bedingtem Hochdruck (systolischer Blutdruck > 180 mmHg) täglich einmal mittels Schlundsonde verabfolgt. Die Messung des Blutdrucks erfolgt jeweils 6 und gegebenenfalls 2 oder 24 Stunden nach Substanzgabe.
Die Blutdruckmessung wird in einer Wärmekammer bei 36°C vorgenommen, um eine bessere Durchblutung der Schwanzarterie zu erreichen. Hierzu werden die Tiere in perforierte Lochblechkäfige verbracht und 20 - 40 Min. nach Beginn der Aufwärmung gemessen. Zur Messung des systolischen arteriellen Drucks wird eine ringförmige Manschette mit aufblasbarer Gummimembran zur Unterbindung der Durchblutung und ein ringförmiger Piezokristallaufnehmer zur Erfassung der Pulswellen auf den Schwanz aufgeschoben. Nach erfolgter Unterbindung des Blutstroms in der Schwanzarterie wird der Manschettendruck kontinuierlich reduziert. Die Wiederkehr der Pulswellen bei Druckablassen wird automatisch als systolischer Blutdruck erkannt und ausgedruckt (Bühler, R. et al.,: Microprocessor-based automation of blood pressure measurement in the conscious rat. Proceedings of the 4th international symposium on rats with spontaneous hypertension and related studies, Rascher, R. et al. (Eds.), Schattauer Verlag, Stuttgart, New York, 1982, S. 410-413). Pulssignale und Druckverlauf werden zur Auswertung graphisch aufgezeichnet.
Zur Gewöhnung an den Meßvorgang werden die Tiere vor Substanzprüfung 14 Tage trainiert. In der zweiten Trainingswoche werden Blutdruck-Vorwerte erhoben. Tiergruppen, die Substanz erhalten, werden gegen eine Kontrollgruppe geprüft.
In der anscließenden Tabelle werden die untersuchten Verbindungen durch laufende Nummern gekennzeichnet, die mit den jeweiligen Beispielnummern übereinstimmen.
Tabelle I gibt für die Vertreter der erfindungsgemäßen Verbindungen die prozentuale Senkung des Blutdrucks (BP) nach oraler Verabreichung bei der Ratte wieder. Tabelle I

[1] = 25 µmol/kg p.o. once daily on four consecutive days
[2] = 10 µmol/kg p.o. once daily on four consecutive days

SMILES | BP (% Änderung vs. Kontrolle), Mittelwert für Meßzeitpunkte: Stunden nach Gabe (Tage) 2h (1.+4.Tag) [1] | BP (% Änderung vs. Kontrolle), Mittelwert für Meßzeitpunkte: Stunden nach Gabe (Tage) 6h (1.-4.Tag) [1] | BP (% Änderung vs. Kontrolle), Mittelwert für Meßzeitpunkte: Stunden nach Gabe (Tage) 24h (1.+3.Tag) (25 µmol/kg p.o. once daily on four consecutive days, 24h after dosing, mean of days 1+3) | BP (% Änderung vs. Kontrolle), Mittelwert für Meßzeitpunkte: Stunden nach Gabe (Tage) 2h (1.+4.Tag) [2] | BP (% Änderung vs. Kontrolle), Mittelwert für Meßzeitpunkte: Stunden nach Gabe (Tage) 6h (1.-4.Tag) [2]
CCOC(=O)C1=C(C)NC(C)=C(C(=O)OCCCN2CCCC2Cc2ccc(Cl)cc2)C1c1cccc([N+](=O)[O-])c1 (racemic) [Beispiel 1, 1,4-Dihydro-2,6-dimethyl-4-(±)-(3-nitrophenyl)-pyridin-3,5-dicarbonsäure-3-ethyl-5-{3-[2-(±)-(4-chlorbenzyl)-pyrrolidinyl-1]-propyl}-ester-hydrochlorid] | -55,5% | -43,5% |  |  | 
COC(=O)C1=C(C)NC(C)=C(C(=O)OCCCN2CCCC2Cc2ccc(Cl)cc2)C1c1cccc([N+](=O)[O-])c1 (racemic) [Beispiel 2, 1,4-Dihydro-2,6-dimethyl-4-(±)-(3-nitrophenyl)-pyridin-3,5-dicarbonsäure-3-methyl-5-{3-[2-(-)-(4-chlorbenzyl)-pyrrolidinyl-1]-propyl}-ester-hydrochlorid] | -47% | -34% | -13,5% |  | 
COC(=O)C1=C(C)NC(C)=C(C(=O)OCCCN2CCCC2Cc2ccc(Cl)cc2)C1c1cccc(Cl)c1Cl (racemic) [Beispiel 8, 1,4-Dihydro-2,6-dimethyl-4-(±)-(2,3-dichlorphenyl)-pyridin-3,5-dicarbonsäure-3-methyl-5-{3-[2-(-)-(4-chlorbenzyl)-pyrrolidinyl-1]-propyl}-ester-hydrochlorid] |  |  |  | -39% | -25,5%
COC(=O)C1=C(C)NC(C)=C(C(=O)OCCCN2CCCC2Cc2ccc([N+](=O)[O-])cc2)C1c1cccc([N+](=O)[O-])c1 (racemic) [Beispiel 11, 1,4-Dihydro-2,6-dimethyl-4-(+)-(3-nitrophenyl)-pyridin-3,5-dicarbonsäure-3-methyl-5-{3-[2-(±)-(4-nitrobenzyl)-pyrrolidinyl-1]-propyl}-ester-hydrochlorid] | -36,5% | -25,5% |  |  | 
COC(=O)C1=C(C)NC(C)=C(C(=O)OCCCN2CCCC2Cc2ccc(Cl)cc2)C1c1cccc([N+](=O)[O-])c1 (single isomer, unassigned) [Beispiel 4, 1,4-Dihydro-2,6-dimethyl-4-(+)-(3-nitrophenyl)-pyridin-3,5-dicarbonsäure-3-methyl-5-{3-[2-(-)-(4-chlorbenzyl)-pyrrolidinyl-1]-propyl}-ester-hydrochlorid] |  |  |  | -48% | -33%
